Activity calls are given as the source filed them. No cut-off for these calls is given here.
Legend:
[1] = biological target: T1, Peroxisome proliferator-activated receptor alpha (Homo sapiens, UniProt Q07869); assay: Transactivation of Gal4-fused human PPARalpha DNA binding domain expressed in african green monkey CV1 cells by luciferase reporter gene assay; format: cell-based, CV-1
T1 sequence (Q07869 whole entry): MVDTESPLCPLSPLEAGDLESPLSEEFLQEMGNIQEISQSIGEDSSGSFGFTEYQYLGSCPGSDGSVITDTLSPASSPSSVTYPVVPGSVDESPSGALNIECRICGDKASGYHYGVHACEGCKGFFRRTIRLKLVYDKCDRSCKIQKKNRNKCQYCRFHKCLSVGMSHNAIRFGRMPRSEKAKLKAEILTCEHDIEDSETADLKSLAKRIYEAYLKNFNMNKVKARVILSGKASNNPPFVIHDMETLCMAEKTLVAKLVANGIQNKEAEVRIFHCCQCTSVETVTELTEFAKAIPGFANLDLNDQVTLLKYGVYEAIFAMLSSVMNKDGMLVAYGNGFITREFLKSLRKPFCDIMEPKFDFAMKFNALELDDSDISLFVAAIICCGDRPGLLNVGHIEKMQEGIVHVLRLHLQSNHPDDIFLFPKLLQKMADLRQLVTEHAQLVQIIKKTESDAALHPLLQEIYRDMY

[2] = biological target: T2, Peroxisome proliferator-activated receptor gamma (Homo sapiens, UniProt P37231); format: cell-based, CV-1
T2 sequence (P37231 whole entry): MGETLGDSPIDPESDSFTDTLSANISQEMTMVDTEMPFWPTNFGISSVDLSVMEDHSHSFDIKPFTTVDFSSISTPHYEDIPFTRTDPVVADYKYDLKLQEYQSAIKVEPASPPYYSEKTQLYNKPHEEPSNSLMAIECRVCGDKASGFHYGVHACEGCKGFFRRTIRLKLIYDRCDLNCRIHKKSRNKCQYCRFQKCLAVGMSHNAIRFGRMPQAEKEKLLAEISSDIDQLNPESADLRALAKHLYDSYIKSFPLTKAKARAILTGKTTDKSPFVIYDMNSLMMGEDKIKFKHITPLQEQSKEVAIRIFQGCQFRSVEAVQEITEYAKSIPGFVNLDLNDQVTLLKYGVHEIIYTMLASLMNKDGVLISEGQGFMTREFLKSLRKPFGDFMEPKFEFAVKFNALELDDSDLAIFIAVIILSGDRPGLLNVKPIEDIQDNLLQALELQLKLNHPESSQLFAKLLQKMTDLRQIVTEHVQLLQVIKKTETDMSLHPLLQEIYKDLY

[3] = biological target: T1, Peroxisome proliferator-activated receptor alpha; assay: Transactivation of full length human PPARalpha expressed in african green monkey CV1 cells by luciferase reporter gene assay; format: cell-based, CV-1
[4] = biological target: T2, Peroxisome proliferator-activated receptor gamma; assay: Transactivation of full length human PPARgamma expressed in african green monkey CV1 cells by luciferase reporter gene assay; format: cell-based, CV-1
[5] = biological target: T3, Peroxisome proliferator-activated receptor delta (Homo sapiens, UniProt Q03181); assay: Transactivation of full length human PPARdelta expressed in african green monkey CV1 cells by luciferase reporter gene assay; format: cell-based, CV-1
T3 sequence (Q03181 whole entry): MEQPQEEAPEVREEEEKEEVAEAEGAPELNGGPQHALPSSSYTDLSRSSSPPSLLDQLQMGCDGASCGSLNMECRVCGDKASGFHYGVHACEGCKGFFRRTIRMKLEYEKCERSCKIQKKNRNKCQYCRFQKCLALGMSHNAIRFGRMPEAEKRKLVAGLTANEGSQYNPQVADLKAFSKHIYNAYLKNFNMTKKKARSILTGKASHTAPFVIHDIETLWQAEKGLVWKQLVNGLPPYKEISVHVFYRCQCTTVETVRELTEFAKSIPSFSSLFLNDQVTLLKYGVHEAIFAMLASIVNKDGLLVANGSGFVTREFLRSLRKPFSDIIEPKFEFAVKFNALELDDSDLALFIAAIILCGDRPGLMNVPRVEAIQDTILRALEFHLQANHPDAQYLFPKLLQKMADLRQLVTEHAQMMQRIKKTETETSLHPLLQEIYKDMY

[6] = species on record: Homo sapiens; assay: Selectivity ratio of EC50 for full length human PPARalpha to EC50 for full length human PPARdelta
[7] = biological target: PPAR delta/gamma (Homo sapiens) (UniProt P37231+Q03181); assay: Selectivity ratio of EC50 for full length human PPARgamma to EC50 for full length human PPARdelta
[8] = species on record: Rattus norvegicus; assay: Induction of Wistar rat oligodendrocyte differentiation at 0.1 uM after 3 days by O1 antibody staining; format: functional
[9] = biological target: T3, Peroxisome proliferator-activated receptor delta; assay: Transactivation of Gal4-fused human PPARdelta DNA binding domain expressed in african green monkey CV1 cells by luciferase reporter gene assay; format: cell-based, CV-1

Row | Structure (SMILES) | EC50 [1] | EC50 [2] | EC50 [3] | EC50 [4] | EC50 [5] | Ratio EC50 [6] | Ratio EC50 [7] | Activity [8] | EC50 [9]
1 | Cc1cc2c(CCc3nc(-c4ccc(Cl)cc4Cl)oc3C(C)C)noc2cc1OCC(=O)O | > 10 µM | > 10 µM | > 10 µM | > 10 µM | 0.0045 µM | 2000 | 2000 | Active | 
2 | Cc1nc(-c2ccc(C(F)(F)F)cc2)sc1C(=O)NCc1ccc(OC(C)(C)C(=O)O)cc1 [GW590735] |  | > 10 µM |  |  |  |  |  |  | 2.6 µM

Source: ChEMBL document CHEMBL1641538, “Synthesis of a novel human PPARδ selective agonist and its stimulatory effect on oligodendrocyte differentiation” (Bioorg Med Chem Lett, 2011)
